What all share (assay type): cell-based
The subject of experiment [1] is HIV-1LAI. In words: H9 assay with wild-type HIV-1 (HIV-1LAI supernatant infection, AlamarBlue). The following applies: Human immunodeficiency virus 1, H9 cells, 10% FCS. As to the method:
For the mixture for a 96-well MTP, 3 million PBLs are pelleted, suspended in 1 ml of RPMI 1640 medium/10% FCS and incubated together with a suitable amount of HIV-1LAI (NIH AIDS Research & Reference Reagent Program, Germantown, USA) at 37° C. for 2 hours (pellet infection). Unadsorbed viruses are subsequently washed out with PBS, and the infected cells are pelleted again and suspended in 18 ml of RPMI 1640 medium/10% FCS/interleukin-2 (40 U/ml). 180 μl thereof are pipetted into each well of a white 96-well MTP with 20 μl of test substance in suitable dilution. Alternatively, after preparation of the substance dilutions in the MTP, the HIV is pipetted in together with the cells and is not washed out again (supernatant infection). In order to avoid edge effects, the wells at the edge of the MTP are not used for substance dilutions. The second vertical row of the MTP contains only infected cells (virus control) and the eleventh vertical row only uninfected cells (cell control), in each case in RPMI 1640 medium/10% FCS/interleukin-2 (40 U/ml). The other wells of the MTP contain the compounds of the invention in various concentrations starting from the third vertical row, from which the test substances are diluted in 3-fold steps up to the tenth vertical row 3^7-fold. The test substances are dissolved in DMSO, whereby the final DMSO concentration in the test mixture is 1%. The test mixtures are incubated at 37° C./5% CO2. After 5 and 7 days, 50 μl of cell-free supernatant are removed from each well to determine the amount of p24 present by means of a p24 ELISA (HIV-1 p24^CA Antigen Capture Assay Kit, NCI-Frederick Cancer Research and Development Center, Frederick, USA). From the resulting values of the photometric evaluation (450/620 nm) the EC50 values of the test substances are determined as the concentration at which the amount of p24 is 50% of the untreated infected cells.
Alternatively, H9 cells (ATCC, Wesel, Germany) are employed instead of PBLs for testing the test substances. H9 cells are incubated in RPMI 1640 medium with 2% or 10% FCS as a HIV-ILAI supernatant infection at 37° C./5% CO2, (20 μl of substance dilution and 80 μl of cells/virus per well) in accordance with the pattern described above for 5 days. Subsequently, 10 μl of AlamarBlue® (Invitrogen, Karlsruhe, Germany) are added to each well, and the MTPs are incubated at 37° C. for 3 hours before the fluorimetric evaluation takes place (544/590 nm). The resulting values are about 40 000 for the untreated uninfected cells and about 7000 for the untreated infected cells. In the low concentration range, the EC50 values of the test substances are determined as the concentration at which the fluorescence is 50% of the untreated uninfected cells (in each case subtracting the values of the untreated infected cells). In addition, in the high concentration range, the CC50 values of the test substances are determined as the concentration at which the fluorescence is 50% of the untreated uninfected cells (in each case subtracting the values of the untreated infected cells).
(In general: Resazurin is reduced to fluorescent resorufin, in cell work by metabolically active cells.)

In experiment [2] the test system is HIV-1NL4-3 wt. In words: Light assay with wild-type HI reporter virus in MT4 7F2 cells. Particulars: Human immunodeficiency virus 1, 2% FCS. The procedure:
(§1) For the mixture for a 96-well MTP, 3 million MT4 7F2 cells are pelleted, suspended in 1 ml of RPMI 1640 medium without phenol red (Invitrogen, Karlsruhe, Germany)/10% FCS/10% AIM-V (Invitrogen, Karlsruhe, Germany) and incubated together with a suitable amount of the corresponding HIV-1NL4-3 reporter virus at 37° C. for 2 hours (pellet infection). Unadsorbed viruses are subsequently washed out with PBS, and the infected cells are pelleted again and suspended in 8 ml of RPMI 1640 medium without phenol red/2% or 10% FCS/10% AIM-V. 80 μl thereof are pipetted into each well of a white 96-well MTP with 20 μl of test substance in suitable dilution. To avoid edge effects, the wells on the edge of the MTP are not used for substance dilutions. The second vertical row of the MTP contains only infected cells (virus control) and the eleventh vertical row only uninfected cells (cell control), in each case in RPMI 1640 medium without phenol red/2% or 10% FCS/10% AIM-V. The other wells of the MTP contain the compounds of the invention in various concentrations starting from the third vertical row, from which the test substances are diluted in 3-fold steps up to the tenth vertical row 3^7-fold. The test substances are dissolved in DMSO, whereby the final DMSO concentration in the test mixture is 1%. The test mixtures are incubated at 37° C./5% CO2 for five days and, after the addition of 15 μl of Lu164 substrate (5 mg/ml coelenterazine dissolved in 30 μM glutathione/DMSO, 100 mM NaCl, 1M MES, 100 mM glutathione), evaluated by luminometry. The resulting values are in the region of 1 000 000 RLUs (relative light units) for the virus control and 300 to 400 RLUs for the cell control. The EC50 values of the test substances are determined as the concentration at which the virus replication measured in RLUs is 50% of the untreated infected cells.

Experiment [3] concerns HIV-1NL4-3 K103N-Y181C. Nature of the experiment: Light assay with inhibitor-resistant HI reporter virus in MT4 7F2 cells. The following applies: Human immunodeficiency virus 1, read-out: EC50 (nM) MT4 7F2 cells HIV-1NL4-3 K103N-Y181C 2% FCS. The procedure:
as §1

Where only a bound is given, the exact number is not on record here.

The EC50 is the midpoint of the concentration-response curve.

For the molecule `O=C(c1cc(-c2cc(F)cc(Cl)c2)c(-c2ccc(F)c(Cl)c2)o1)N1CCSC1` [Example 2, [5-(3-Chloro-4-fluorophenyl)-4-(3-chloro-5-fluorophenyl)furan-2-yl](1,3-thiazolidin-3-yl)methanone], the EC50 worked out at 135 nM in experiment [1], 40 nM in experiment [2] and 1620 nM in experiment [3].

In the case of `O=C1CN(C(=O)c2cc(-c3cccc(Cl)c3)c(-c3ccc(F)c(Cl)c3)o2)CN1` [Example 25, 1-{[5-(3-Chloro-4-fluorophenyl)-4-(3-chlorophenyl)furan-2-yl]carbonyl}imidazolidin-4-one], the values for the EC50 in experiment [1], in experiment [2] and in experiment [3] were 225 nM, 18 nM and 250 nM, respectively.

For `N#Cc1cccc(-c2oc(C(=O)N3CCNC(=O)C3)cc2-c2cccc(Cl)c2)c1` [Example 20, 3-{3-(3-Chlorophenol)-5-[(3-oxopiperazin-1-yl)carbonyl]furan-2-yl}benzenecarbonitrile], the results for the EC50 in experiment [1], in experiment [2] and in experiment [3] were 50 nM, 2 nM and 137 nM, respectively.

Take `COc1cccc(-c2cc(C(=O)N3CCNC(=O)C3)oc2-c2cccc(Cl)c2)c1` [Example 29, 4-{[5-(3-Chlorophenyl)-4-(3-methoxyphenyl)furan-2-yl]carbonyl}piperazin-2-one]: the figures for the EC50 in experiment [1], in experiment [2] and in experiment [3] were 450 nM, 53 nM and 400 nM, respectively.

In the case of `N#Cc1cc(-c2oc(C(=O)N3CNC(=O)C3)cc2-c2cc(F)cc(Cl)c2)ccc1F` [Example 23, 5-{3-(3-Chloro-5-fluorophenyl)-5-[(4-oxoimidazolidin-1-yl)carbonyl]furan-2-yl}-2-fluorobenzenecarbonitrile], the EC50 turned out to be 18 nM in experiment [1], 2 nM in experiment [2] and 100 nM in experiment [3].

On to `N#Cc1cccc(-c2oc(C(=O)N3CNC(=O)C3)cc2-c2cc(F)cc(Cl)c2)c1` [Example 12, 3-{3-(3-Chloro-5-fluorophenyl)-5-[(4-oxoimidazolidin-1-yl)carbonyl]furan-2-yl}benzenecarbonitrile], for which the half-maximal effective concentration (EC50) stood at 30 nM in experiment [1], 2 nM in experiment [2] and 163 nM in experiment [3].

As to `O=C1CN(C(=O)c2cc(-c3cc(F)cc(Cl)c3)c(-c3cccc(Cl)c3)o2)CN1` [Example 16, 1-{[4-(3-Chloro-5-fluorophenyl)-5-(3-chlorophenyl)furan-2-yl]carbonyl}imidazolidin-4-one], the figures for the EC50 in experiment [1], in experiment [2] and in experiment [3] were 75 nM, 2 nM and 200 nM, respectively.

On to `N#Cc1cc(F)cc(-c2cc(C(=O)N3CNC(=O)C3)oc2-c2cccc(Cl)c2)c1` [Example 32, 3-{2-(3-Chlorophenyl)-5-[(4-oxoimidazolidin-1-yl)carbonyl]furan-3-yl}-5-fluorobenzenecarbonitrile], for which the EC50 was 70 nM in experiment [1], 2 nM in experiment [2] and 150 nM in experiment [3].

For the molecule `O=C1CN(C(=O)c2cc(-c3cc(F)cc(F)c3)c(-c3cccc(Cl)c3)o2)CCN1` [Example 17, 4-{[5-(3-Chlorophenyl)-4-(3,5-difluorophenyl)furan-2-yl]carbonyl}piperazin-2-one], the EC50 in experiment [1] came out at 135 nM; in experiment [2], 6 nM; in experiment [3], 350 nM.

For `O=C1CN(C(=O)c2cc(-c3cccc(Cl)c3)c(-c3ccc(F)cc3)o2)CCN1` [Example 6, 4-{[4-(3-Chlorophenyl)-5-(4-fluorophenyl)furan-2-yl]carbonyl}piperazin-2-one], the values for the EC50 in experiment [1], in experiment [2] and in experiment [3] were 400 nM, 48 nM and 283 nM, respectively.

On to `O=C1CN(C(=O)c2cc(-c3cc(F)cc(Cl)c3)c(-c3ccc(F)c(Cl)c3)o2)CCN1` [Example 7, 4-{[5-(3-Chloro-4-fluorophenyl)-4-(3-chloro-5-fluorophenyl)furan-2-yl]carbonyl}piperazin-2-one], for which the EC50 in experiment [1] worked out at 46 nM; in experiment [2], 5 nM; in experiment [3] it was 186 nM.

For the molecule `O=C1CN(C(=O)c2cc(-c3cc(F)cc(Cl)c3)c(-c3cccc(Cl)c3)o2)CCN1` [Example 14, 4-{[4-(3-Chloro-5-fluorophenyl)-5-(3-chlorophenyl)furan-2-yl]carbonyl}piperazin-2-one], the EC50 in experiment [1] is 52 nM; in experiment [2], 1 nM; in experiment [3] it was 173 nM.

With `N#Cc1cccc(-c2oc(C(=O)N3CCSC3)cc2-c2cc(F)cc(Cl)c2)c1` [Example 1, 3-[3-(3-Chloro-5-fluorophenyl)-5-(1,3-thiazolidin-3-ylcarbonyl)furan-2-yl]benzenecarbonitrile], the EC50 in experiment [1] worked out at 65 nM; in experiment [2], 4.5 nM; in experiment [3] it was 550 nM.

`N#Cc1cccc(-c2oc(C(=O)N3CCS(=O)(=O)C3)cc2-c2cc(F)cc(Cl)c2)c1` [Example 5, 3-{3-(3-Chloro-5-fluorophenyl)-5-[(1,1-dioxido-1,3-thiazolidin-3-yl)carbonyl]furan-2-yl}benzenecarbonitrile]: the EC50 in experiment [1] was 17.5 nM; in experiment [2] it was less than 1.5 nM; in experiment [3] it was 305 nM.

Turning to `Cc1cc(C)cc(-c2cc(C(=O)N3CCNC(=O)C3)oc2-c2cccc(Cl)c2)c1` [Example 28, 4-{[5-(3-Chlorophenyl)-4-(3,5-dimethylphenyl)furan-2-yl]carbonyl}piperazin-2-one], the EC50 worked out at 200 nM in experiment [1], 30 nM in experiment [2] and 400 nM in experiment [3].

For the molecule `COc1cccc(-c2oc(C(=O)N3CNC(=O)C3)cc2-c2cccc(Cl)c2)c1` [Example 27, 1-{[4-(3-Chlorophenyl)-5-(3-methoxyphenyl)furan-2-yl]carbonyl}imidazolidin-4-one], the EC50 in experiment [1] is 200 nM; in experiment [2], 14 nM; in experiment [3], 700 nM.

For the molecule `Cc1cccc(-c2oc(C(=O)N3CCNC(=O)C3)cc2-c2cccc(Cl)c2)c1` [Example 18, 4-{[4-(3-Chlorophenyl)-5-(3-methylphenyl)furan-2-yl]carbonyl}piperazin-2-one], the EC50 was found to be 200 nM in experiment [1], 45 nM in experiment [2] and 300 nM in experiment [3].

Regarding `O=C1CN(C(=O)c2cc(-c3cccc(Cl)c3)c(-c3ccc(F)c(F)c3)o2)CCN1` [Example 19, 4-{[4-(3-Chlorophenyl)-5-(3,4-difluorophenyl)furan-2-yl]carbonyl}piperazin-2-one], the EC50 in experiment [1] turned out to be 250 nM; in experiment [2] it was 43 nM; in experiment [3], 450 nM.

In the case of `O=C1CN(C(=O)c2cc(-c3cc(Cl)ccc3F)c(-c3cccc(Cl)c3)o2)CCN1` [Example 13, 4-{[4-(5-Chloro-2-fluorophenyl)-5-(3-chlorophenyl)furan-2-yl]carbonyl}piperazin-2-one], the EC50 in experiment [1] amounted to 160 nM; in experiment [2] it was 15 nM; in experiment [3], 325 nM.
